Reference: patent publication US20200108043A1, “COMPOUNDS AND COMPOSITIONS FOR EXTENDING LIFESPAN OF A SUBJECT” (YALE UNIVERSITY, priority 2017, published 2020)
“Also recorded” adds a separate entry of the source. Structures can show the parent of a compound that is named as a salt.

Tested on: Saccharomyces cerevisiae
Assay: High-Life (High throughput replicative Lifespan measurement) flow cytometry assay in MEP yeast
Format: cell-based
Details: 10 μM, 24 hours in culture, 3-4 replicate wells, repeat of screen hits
Method: Cells were labeled with NHS-fluorescein as described above, then diluted to 20 cells/μL in media. 80 μL/well was aliquoted to 384-well plates, which were covered with a breathable membrane and placed on a shaker platform in a humidified incubator. After 3 hours, the plates were removed from the incubator and each well was treated with 20 μL pre-warmed, 30° C. 5 μM β-estradiol in media. In the case of ibuprofen or compound-treated wells, the compound was diluted in this volume at a 5× concentration to achieve a final concentration of 10 μM, or 100 μM for ibuprofen. The plates were then returned to the incubator. At indicated times, one plate was removed from the incubator and placed on an autosampler cooled to 8° C. attached to a Stratedigm flow cytometer. The cytometer was set to automatically add and mix 20 μL of aqueous solution containing 60 μg/mL CF405M-WGA (Biotium 29028) and propidium iodide (Sigma P4864) prior to acquiring 80 μL of sample for each well.
In order to test the lifespan of model organisms on both a large-scale and with quick turn-around, a massively multiplexed method was developed to measure replicative lifespan in the short-lived model organisms Saccharomyces cerevisiae. The protocol uses green-fluorescent labeling to identify progenitor cells, red-fluorescent labeling to differentiate non-viable cells, and blue-fluorescent labeling of bud scars to determine replicative age (FIG. 1). Each parameter is measured using a flow cytometer.
To achieve high throughput, the measurement system was automated, and the assay was performed in 384-well plates. The assay was performed using an autosampler-equipped flow cytometer, in a volume of 100 μL. Growth of even a single cell and its progeny in such a small volume will result in nutrient starvation before the natural replicative lifespan is exhausted; therefore to circumvent this issue, High-Life experiments were performed in the background of the Mother Enrichment Program (MEP) (Lindstrom and Gottschling, Genetics. 2009 October; 183(2):413-22). MEP strains express a CRE recombinase fused to an estrogen-binding domain for only a short time after birth. In the presence of β-estradiol, the recombinase translocates to the nucleus where it can excise two essential genes that have been modified to contain the exogenous LoxP sequence. Addition of β-estradiol to the media thus renders newborn daughters inviable without affecting existing mother cells, preventing exponential growth of the cell population and nutrient depletion (FIG. 2A).
The High-Life method was then tested to determine if it was suitable to screening for compounds that extend replicative lifespan. […] The effect of these compounds on High-Life readings was assayed after 24 hours in culture at 10 μM concentration. As a positive control, ibuprofen was used.

Row | SMILES | average High-Life readings (progenitor fraction viable vs CF405M intensity) relative to controls
1 | O=C(O)c1cc(=O)c2c(OCC(O)COc3cccc4oc(C(=O)O)cc(=O)c34)cccc2o1 [cromolyn sodium] | at least slightly above controls
2 | Cn1c([N+](=O)[O-])cnc1COC(N)=O [ronidazole] | at least slightly above controls
3 | N.N.[Cl][Pt][Cl] [cisplatin] | at least slightly above controls
4 | CN1CCc2cccc3c2[C@H]1Cc1ccc(O)c(O)c1-3 [e hydrochloride] | at least slightly above controls
5 | [H]/N=C(\N/C(=N/[H])Nc1ccc(Cl)cc1)NC(C)C [proguanil hydrochloride] | at least slightly above controls
6 | Cc1ccc(Cl)c(Nc2ccccc2C(=O)O)c1Cl [meclofenamate sodium] | at least slightly above controls
7 | O=[N+]([O-])c1ccc(O)c2ncccc12 [nitroxoline, 8-hydroxy-5-nitroquinoline] | at least slightly above controls
8 | CC(=O)OCC(=O)NCCCOc1cccc(CN2CCCCC2)c1 [roxatidine acetate hydrochloride] | at least slightly above controls
9 | N=C(N)N/N=C/c1c(Cl)cccc1Cl [guanabenz acetate] | at least slightly above controls

Same assay, conditions: 100 μM ibuprofen vs untreated, multiple time points 0-48 h

Row | SMILES | replicative lifespan (High-Life)
10 | CC(C)Cc1ccc(C(C)C(=O)O)cc1 (stereo not drawn) [ibuprofen] | increase in replicative lifespan was observed

Same assay, conditions: testing conditions identical to Example 3 (10 μM, 24 hours)

Row | SMILES | lifespan extending properties (High-Life)
11 | COc1c(C)c2c(c(O)c1CC1CC1(C)CCC(=O)O)C(=O)OC2 (stereo not drawn) [3-(2-((4-Hydroxy-6-methoxy-7-methyl-3-oxo-1,3-dihydroisobenzofuran-5-yl)methyl)-1-methylcyclopropyl)propanoic acid] | measurable lifespan extension in initial tests
12 | Cc1cc(NS(=O)(=O)c2ccc(N)cc2)no1 [Sulfamethoxazole] | at least some lifespan extending properties
13 | NC(=O)c1ncn([C@@H]2O[C@H](CO)[C@@H](O)[C@H]2O)c1O [Mizoribine] | at least some lifespan extending properties
14 | CCN(CC)CCCC(C)Nc1c2ccc(Cl)cc2nc2ccc(OC)cc12 (stereo not drawn) [Quinacrine] | at least some lifespan extending properties
15 | CN(C)CCCN1c2ccccc2Sc2ccc(Cl)cc21 [Chlorpromazine] | at least some lifespan extending properties
16 | Cn1cnc([N+](=O)[O-])c1Sc1ncnc2nc[nH]c12 [Azathioprine] | at least some lifespan extending properties
17 | N=C(N)c1ccc(OCCCCCOc2ccc(C(=N)N)cc2)cc1 [Pentamidine] | at least some lifespan extending properties
18 | COc1cc(Cc2cnc(N)nc2N)cc(OC)c1OC [Trimethoprim] | at least some lifespan extending properties
19 | COc1c(C)c2c(c(O)c1C/C=C(\C)CCC(=O)NCc1ccncc1)C(=O)OC2 [(E)-6-(4-hydroxy-6-methoxy-7-methyl-3-oxo-1,3-dihydroisobenzofuran-5-yl)-4-methyl-N-(pyridin-4-ylmethyl)hex-4-enamide] | at least some lifespan extending properties; also recorded: measurable lifespan extension in initial tests
20 | Nc1nc2[nH]cc(CCc3ccc(C(=O)N[C@@H](CCC(=O)O)C(=O)O)cc3)c2c(=O)[nH]1 [Pemetrexed] | at least some lifespan extending properties
21 | CN(Cc1cnc2nc(N)nc(N)c2n1)c1ccc(C(=O)N[C@@H](CCC(=O)O)C(=O)O)cc1 [Methotrexate] | at least some lifespan extending properties
22 | Cc1oncc1C(=O)Nc1ccc(C(F)(F)F)cc1 [Leflunomide] | at least some lifespan extending properties

Same assay, conditions: testing conditions identical to Example 3 (10 μM, 24 hours); listed as 3-(2-((4-Hydroxy-6-methoxy-7-methyl-2-oxo-1,3-dihydroisobenzofuran-5-yl)methyl)-

Row | SMILES | lifespan extending properties (High-Life)
23 | COc1c(C)c2c(c(O)c1CC1CC1(C)CCC(=O)O)C(=O)OC2 (stereo not drawn) [3-(2-((4-Hydroxy-6-methoxy-7-methyl-3-oxo-1,3-dihydroisobenzofuran-5-yl)methyl)-1-methylcyclopropyl)propanoic acid] | at least some lifespan extending properties

Tested on: S. cerevisiae
Assay: not given
Format: cell-based
Details: 10 μM compound
Method: To obtain the single-cell level data for the age and generation-durations of replicatively aging mother cells, data reported in Liu, P., et al., Cell Rep. 634-644 (2015) was re-analyzed. The data was collected in the same media condition (CSM 2% glucose) as reported elsewhere herein. Cells were grown for ˜24 hours in CSM 2% glucose prior to loading to the microfluidic device. Once cells were loaded, media was swapped to provide CSM 2% glucose control media (untreated), media containing DMSO as a vehicle control (American Bio AB00435), media containing 10 μM terreic acid (Sigma SML0480), media containing 10 μM mycophenolic acid (Sigma M5255), or media containing another compound at the indicated concentration. An automated microscope was used to track […], and replicative lifespan was later determined by counting the number of daughters produced before death. In the case of compound validation, only newborn cells were included in the lifespan experiment. To compare the replicative lifespan of labeled and unlabeled cells, only cells that were present within the traps at the start of the experiment were included. For these experiments, cells were loaded to the microfluidic device at an increased rate of 100 μL/min to increase the number of trapped mother cells. Green fluorescent images were also taken at the start of the experiment to confirm that the cells were visibly labeled.
Differences in lifespan characteristics were assessed through Log-Rank test using MATLAB with a cut-off value of P=0.05. The script for Log-Rank test was downloaded from MATLAB. Differences in proteasome activity were assessed using the unpaired, two-tailed, parametric t-test function of the GraphPad Prism software.
The Longevity Placement Test (LPT) was designed as a mutually exclusive, collectively exhaustive test to determine the relationship of a longevity intervention to a known genetic regulator of lifespan. For a given intervention that extends lifespan, any of three possible relationships may exist relative to a known genetic regulator of lifespan. (1) The intervention may act to extend lifespan independently from the known regulator. (2) The […] may act downstream from the known regulator, converging on a single component of the known regulator's lifespan pathway. (3) The intervention may act upstream from or upon the known regulator, ultimately modulating lifespan through the genetic regulator.
In Step 1 of the LPT, the longevity intervention is applied to a strain in which a genetic regulator of lifespan is deleted. In the event that lifespan extension from the longevity intervention is observed in this background, only possibilities (1) and (2) above remain valid (FIG. 7B). If no lifespan extension is observed, then possibilities (2) and (3) remain valid. Possibility (2) cannot be ruled out in this step, since non-saturating action by the genetic regulator could leave room for lifespan extension by the longevity intervention, while saturating action would preclude it.
In Step 2 of the LPT, an epistatic agent, which prevents lifespan extension from the longevity agent, is applied to a strain in which some upstream member of the genetic regulator's lifespan pathway has been modified to extend lifespan. This step differentiates possibility (2) from the remaining possibility after Step 1. In the event that lifespan extension from the genetic regulator's pathway is suppressed by the epistatic agent, this determines that possibility (2) is correct. In the event that no epistasis is observed, the remaining possibility, (1) or (3), is correct (FIG. 7C).

Row | SMILES | toxicity in Replicator RLS experiment
24 | O=[N+]([O-])c1ccc(O)c2ncccc12 [nitroxoline, 8-hydroxy-5-nitroquinoline] | toxic and caused most cells to arrest immediately

Same assay, conditions: 10 μM, supplied to young yeast cells throughout lifespan, vs untreated control

Row | SMILES | lifespan of yeast cells (Replicator validation)
25 | [H]/N=C(\N/C(=N/[H])Nc1ccc(Cl)cc1)NC(C)C [proguanil hydrochloride] | extend the lifespan
26 | N=C(N)N/N=C/c1c(Cl)cccc1Cl [guanabenz acetate] | extend the lifespan

Same assay, conditions: 10 μg/mL folinic acid with 10 μM proguanil, Replicator device

Row | SMILES | suppression of the longevity effect of proguanil
27 | Nc1nc(=O)c2c([nH]1)NCC(CNc1ccc(C(=O)N[C@@H](CCC(=O)O)C(=O)O)cc1)N2C=O (mixture of isomers) [folinic acid] | able to suppress the longevity effect of proguanil
